Experimental data from patent US5444064A, “Method of treating gastrointestinal malignancies” (Montefiore Medical Center, priority 1989, dated 1995).

Tests used:
HT-29 cells = experiment: Cytokinetic studies (cell cycle distribution by flow cytometry), HT-29; format: cell-based, human
SW480 cells = experiment: Cytokinetic studies (cell cycle distribution by flow cytometry), SW480; format: cell-based, human
[1] = tested on: disseminated colorectal cancer; conditions: cited from earlier work
[2] = 5-fluorouracil 50-500 uM, 24 hour incubation

Question: With `O=c1[nH]cc(F)c(=O)[nH]1` [5-fluorouracil] as the molecule, how does the “depletion of G2M” value (HT-29 cells; [2]) read?
Answer: nearly complete depletion of G2M

Question: And the “time to depletion of G2M compartment” value (HT-29 cells; time course, from start of incubation)?
Answer: ≤ 7 h

Question: And the “depletion of G2M” value (SW480 cells; [2])?
Answer: nearly complete depletion of G2M

Question: What about the “effect on cell cycle versus HT-29” value (SW480 cells; 5-fluorouracil and alpha-2a-interferon alone or in combination, data not shown) of the same molecule?
Answer: qualitatively identical effects

Question: What about the “prolongation of the block in G0/G1” value (SW480 cells; data not shown) of the same molecule?
Answer: 24 h

Question: What about the “completeness and duration of response” value ([1]; human, in vivo) of the same molecule?
Answer: rarely respond completely and the duration of the response is generally short

Question: What about the remissions ([1]; patients with disseminated colorectal cancer) of the same molecule?
Answer: 15-35%

Question: And the median survival ([1]; versus untreated controls)?
Answer: no better than that of untreated controls
